Source: US6967211B2, “Remedial agent for chronic articular rheumatism” (Nippon Shinyaku Co. Ltd., priority 2002, dated 2005)
Like-named read-outs stand apart in the source and are kept apart here. Marks after values point to notes of the source that are not given here.

Legend:
[1] = test system: CDF1 male mice; settings: single oral administration
Method: 7-week-old CDF1 male mice (6 mice) were used. The compound 1 was suspended in 0.5% methylcellulose and the resulting suspension was orally administered once by oral probe. The mortality rate was investigated after 2 weeks and the LD50 value was calculated by the probit method.

[2] = test system: type II collagen-induced arthritis; settings: for Inhibition ratio (%): arthritis score 35 days after primary sensitization
Method: 8-week-old DBA/1J male mice (7 to 10 mice) were used. 0.1 ml of an emulsion prepared by mixing a 0.1 M solution of acetic acid in physiological saline (2 mg/ml) of type II collagen derived from bovine joint cartilage and complete Freund's adjuvant at a mixing ratio of 1:1 was injected intradermally at the base of the tail in mice (primary sensitization). 21 days later, 0.1 ml of the emulsion prepared in the same manner as in case of primary sensitization was injected subcutaneously again at the back in mice (secondary sensitization). The test compound was suspended in an aqueous 0.5% methyl cellulose solution and administered orally to the mice once a day, which started from the primary or secondary sensitization. After 35 days from the primary sensitization, symptoms of arthritis was visually observed and the results were used a score of arthritis.

For COc1ccc(S(=O)(=O)N(C(C)=O)c2ccccc2/C=C/c2cc[n+]([O-])cc2)cc1 [Compound 1], the “toxicity (in words)” value ([1]; mice) was “very low toxicity”, the LD50 value ([1]; mortality after 2 weeks, probit method) was 620.5 mg/kg and the “Inhibition ratio (%)” value ([2]; 1 mg/kg orally once a day, started from the primary sensitization) was −8.5%. For the same molecule, the “inhibitory effect on type II collagen-induced arthritis (in words)” value ([2]; 5 mg/kg from the primary sensitization, or 5 and 10 mg/kg from the secondary sensitization) was “significant inhibitory effect”, the “Inhibition ratio (%)” value ([2]; 5 mg/kg orally once a day, started from the primary sensitization) was 69.5* % and the “Inhibition ratio (%)” value ([2]; 5 mg/kg orally once a day, started from the secondary sensitization) was 69.6* %. The “Inhibition ratio (%)” value ([2]; 10 mg/kg orally once a day, started from the secondary sensitization) was 100.0** %.
